What was measured:
Trichomonas vaginalis [1] = assay: Trichomonicidal activity against Trichomonas vaginalis JH31A#4 trophozite assessed as inhibition of parasite growth at 10 ug/ml after 24 hrs by resazurin redox dye based fluorimetric microtiter method; type: functional; settings: JH31A#4, 24 h, read-out: GI
[2] = Selectivity index, ratio of CC50 for African green monkey Vero cells to IC50 for Trichomonas vaginalis JH31A#4 trophozite; type: functional
[3] = Cytotoxicity against African green monkey Vero cells assessed as inhibition of cell growth after 24 hrs by resazurin redox dye based fluorimetric microtiter method; settings: chlorocebus sabaeus
Trichomonas vaginalis [4] = assay: Trichomonicidal activity against Trichomonas vaginalis JH31A#4 trophozite assessed as inhibition of parasite growth at 18.75 uM after 24 hrs by resazurin redox dye based fluorimetric microtiter method; type: functional; settings: JH31A#4, 24 h
Trichomonas vaginalis [5] = assay: Trichomonicidal activity against Trichomonas vaginalis JH31A#4 trophozite assessed as inhibition of parasite growth at 9.37 uM after 24 hrs by resazurin redox dye based fluorimetric microtiter method; type: functional; settings: JH31A#4, 24 h
Trichomonas vaginalis [6] = assay: Trichomonicidal activity against Trichomonas vaginalis JH31A#4 trophozite assessed as inhibition of parasite growth at 37.5 uM after 24 hrs by resazurin redox dye based fluorimetric microtiter method; type: functional; settings: JH31A#4, 24 h
Trichomonas vaginalis [7] = assay: Trichomonicidal activity against Trichomonas vaginalis JH31A#4 trophozite assessed as inhibition of parasite growth at 75 uM after 24 hrs by resazurin redox dye based fluorimetric microtiter method; type: functional; settings: JH31A#4, 24 h
Trichomonas vaginalis [8] = assay: Trichomonicidal activity against Trichomonas vaginalis JH31A#4 trophozite assessed as inhibition of parasite growth at 300 uM after 24 hrs by resazurin redox dye based fluorimetric microtiter method; type: functional; settings: JH31A#4, 24 h
Vero = assay: Cytotoxicity against African green monkey Vero cells at 300 uM after 24 hrs by resazurin redox dye based fluorimetric microtiter method; type: cell-based; settings: chlorocebus sabaeus
Trichomonas vaginalis [9] = assay: Trichomonicidal activity against Trichomonas vaginalis JH31A#4 trophozite assessed as inhibition of parasite growth at 150 uM after 24 hrs by resazurin redox dye based fluorimetric microtiter method; type: functional; settings: JH31A#4, 24 h
Trichomonas vaginalis [10] = assay: Trichomonicidal activity against Trichomonas vaginalis JH31A#4 trophozite assessed as inhibition of parasite growth after 24 hrs by resazurin redox dye based fluorimetric microtiter method; type: functional, organism-based; settings: JH31A#4, 24 h
Trichomonas vaginalis [11] = assay: Trichomonicidal activity against Trichomonas vaginalis C-1:NIH trophozoites infected in NMRI mouse assessed as reduction of pathogenicity at 100 mg/kg, po administered for 7 days from day 3 to day 10 post-infection measured at day 15 post-infection; type: functional
Mus musculus = assay: Toxicity against NMRI mouse infected with Trichomonas vaginalis C-1:NIH trophozoites assessed as animal death at 50 to 100 mg/kg, po administered for 7 days from day 3 to day 10 post-infection measured at day 15 post-infection; type: organism-based; settings: in vivo, 168 h
Trichomonas vaginalis [12] = assay: Trichomonicidal activity against Trichomonas vaginalis C-1:NIH trophozoites infected in NMRI mouse assessed as reduction of pathogenicity at 50 mg/kg, po administered for 7 days from day 3 to day 10 post-infection measured at day 15 post-infection; type: functional

SMILES	inhibition of growth at 10 µg/mL (Trichomonas vaginalis [1])	Ratio CC50/IC50 [2]	CC50 at 24 h [3]	inhibition at 18.75 µM (Trichomonas vaginalis [4])	inhibition at 9.37 µM (Trichomonas vaginalis [5])	inhibition at 37.5 µM (Trichomonas vaginalis [6])	inhibition at 75 µM (Trichomonas vaginalis [7])	inhibition at 300 µM (Trichomonas vaginalis [8])	Activity (Vero)	inhibition at 150 µM (Trichomonas vaginalis [9])	IC50 (Trichomonas vaginalis [10])	inhibition in vivo at 100 mg/kg (Trichomonas vaginalis [11])	Activity (Mus musculus)	inhibition in vivo at 50 mg/kg (Trichomonas vaginalis [12])
O=C1CN(CCCCCl)c2ccc([N+](=O)[O-])cc2N1	73%	–	–	–	–	–	–	–	–	–	–	–	–	–
O=C1CN(CCCCCCl)c2ccc([N+](=O)[O-])cc2N1	73%	–	–	–	–	–	–	–	–	–	–	–	–	–
CN1C(=O)CN(CCCCCl)c2ccc([N+](=O)[O-])cc21	73%	–	–	–	–	–	–	–	–	–	–	–	–	–
CN1C(=O)CN(CCCCCCCl)c2ccc([N+](=O)[O-])cc21	94%	–	–	–	–	–	–	–	–	–	–	–	–	–
O=C1CN(CCCCCCCl)c2ccc([N+](=O)[O-])cc2N1	73%	–	–	–	–	–	–	–	–	–	–	–	–	–
CN(C)CCN1CC(=O)Nc2cc([N+](=O)[O-])ccc21.Cl	7%	>10	> 300 µM	28.4%	5.16%	40.8%	83.7%	98.5%	0%	96.9%	36.8 µM	–	–	–
CCN(CC)CCCN1CC(=O)Nc2cc([N+](=O)[O-])ccc21.Cl	–	>10	> 300 µM	28.8%	23.1%	55.5%	59%	88.6%	0.16%	64.2%	38.9 µM	–	–	–
Cl.O=C1CN(CCN2CCCCC2)c2ccc([N+](=O)[O-])cc2N1	–	>10	> 300 µM	32.7%	26%	45.6%	78.3%	99%	1.51%	82.2%	30.7 µM	–	–	–
Cl.O=C1CN(CCCN2CCCCC2)c2ccc([N+](=O)[O-])cc2N1	7%	>10	> 300 µM	58.4%	24.2%	70.3%	82.4%	100%	3.26%	98.9%	18.3 µM	46.1%	Non-toxic	50.7%
O=C1CN(CCCO)c2ccc([N+](=O)[O-])cc2N1	–	–	–	4.5%	3.66%	26.6%	28.4%	84%	–	68.1%	102 µM	–	–	–
CN(C)CCN1CC(=O)N(C)c2cc([N+](=O)[O-])ccc21	7%	12.77	648 µM	6.7%	1.36%	20.4%	73.9%	100%	17.29%	99.9%	50.7 µM	–	–	–
CCN(CC)CCCN1CC(=O)N(C)c2cc([N+](=O)[O-])ccc21.Cl	–	38.07	1240 µM	14%	1.8%	55.5%	96.1%	100%	10.81%	100%	32.4 µM	–	–	–
CN1C(=O)CN(CCN2CCCCC2)c2ccc([N+](=O)[O-])cc21	–	>10	> 300 µM	13.9%	7.8%	59.6%	96%	100%	0%	100%	29.9 µM	–	–	–
CN1C(=O)CN(CCCN2CCCCC2)c2ccc([N+](=O)[O-])cc21	7%	–	–	18.6%	6.97%	26.6%	28.4%	99.3%	–	63.3%	110 µM	–	–	–

— ChEMBL document CHEMBL3576838, “Synthesis and in vitro and in vivo biological evaluation of substituted nitroquinoxalin-2-ones and 2,3-diones as novel trichomonacidal agents” (Eur J Med Chem, 2015)
